Source: patent publication US20180035670A1, “ACTIVE COMPOUND COMBINATIONS” (BAYER CROPSCIENCE AKTIENGESELLSCHAFT, priority 2015, published 2018)
Where “and” joins values, the source holds several entries; their conditions need not be identical. Equal values may be shown once. Read-outs that look alike come from different tables or passages of the source.

Columns and labels:
[1] = tested on: Venturia inaequalis; experiment: in vivo preventive test on Venturia test (apples); settings: for pest or weed control at 10 ppm: read-out: Efficacy in % found, 10 ppm a.i., apples, 10 days after inoculation; for pest or weed control at 0.25 ppm: read-out: Efficacy in % found, 0.25 ppm a.i., apples, 10 days after inoculation; for pest or weed control at 0.5 ppm: read-out: Efficacy in % found, 0.5 ppm a.i., apples, 10 days after inoculation; for pest or weed control at 2 ppm: read-out: Efficacy in % found, 2 ppm a.i., apples, 10 days after inoculation; for Efficacy in % found: apples, 10 days after inoculation; for pest or weed control at 1 ppm: read-out: Efficacy in % found, 1 ppm a.i., apples, 10 days after inoculation
Procedure: After the spray coating has dried on, the plants are inoculated with an aqueous conidia suspension of the causal agent of apple scab (Venturia inaequalis) and then remain for 1 day in an incubation cabinet at approximately 20° C. and a relative atmospheric humidity of 100%. The plants are then placed in a greenhouse at approximately 21° C. and a relative atmospheric humidity of approximately 90%.
The test is evaluated 10 days after the inoculation.

[2] = tested on: Botrytis cinerea; experiment: in vivo preventive test on Botrytis test (beans); settings: 2 days after inoculation
Procedure: After the spray coating has dried on, 2 small pieces of agar covered with growth of Botrytis cinerea are placed on each leaf.
The inoculated plants are placed in a darkened chamber at 20° C. and a relative atmospheric humidity of 100%.
2 days after the inoculation, the size of the lesions on the leaves is evaluated.

[3] = tested on: Alternaria solani; experiment: in vivo preventive test on Alternaria test (tomatoes); settings: 3 days after inoculation
Procedure: After the spray coating has dried on, the plants are inoculated with an aqueous spore suspension of Alternaria solani. The plants are then placed in an incubation cabinet at approximately 20° C. and a relative atmospheric humidity of 100%.
The test is evaluated 3 days after the inoculation.

[4] = tested on: Phakopsora pachyrhizi; experiment: in vivo preventive test on Phakopsora test (soybeans); settings: 7 days after inoculation; for pest or weed control at 0.25 ppm: 0.25 ppm a.i.; for pest or weed control at 0.5 ppm: 0.5 ppm a.i.; for pest or weed control at 1 ppm: 1 ppm a.i.
[5] = tested on: Phytophthora infestans; format: in vivo; settings: tomatoes, 3 days after inoculation
[6] = tested on: Sphaerotheca fuliginea; experiment: in vivo preventive test on Sphaerotheca test (cucumbers); settings: 7 days after inoculation
Procedure: After the spray coating has dried on, the plants are inoculated with an aqueous spore suspension of Sphaerotheca fuliginea. The plants are then placed in a greenhouse at approximately 23° C. and a relative atmospheric humidity of approximately 70%.
The test is evaluated 7 days after the inoculation.

[7] = Phakopsora pachyrhizi, 168 h, read-out: Efficacy in % found

| Molecule | pest or weed control at 0.25 ppm ([1]; Venturia inaequalis, 240 h) [%] | pest or weed control at 0.5 ppm ([1]; Venturia inaequalis, 240 h) [%] | Efficacy in % found ([5]; 10 ppm a.i.) [%] | Efficacy in % found ([5]; 20 ppm a.i.) [%] | Efficacy in % found ([2]; 0.25 ppm a.i.) [%] | Efficacy in % found ([2]; 0.5 ppm a.i.) [%] | Efficacy in % found ([3]; 1 ppm a.i.) | Efficacy in % found ([3]; 2 ppm a.i.) [%] | pest or weed control at 0.25 ppm [4, 7] [%] | Efficacy in % found ([2]; 1 ppm a.i.) | Efficacy in % found ([3]; 0.25 ppm a.i.) [%] | Efficacy in % found ([3]; 0.5 ppm a.i.) | pest or weed control at 0.5 ppm [4, 7] [%] | pest or weed control at 1 ppm [4, 7] [%] | further results |
| --- | --- | --- | --- | --- | --- | --- | --- | --- | --- | --- | --- | --- | --- | --- | --- |
| COC(=O)Nc1nc2ccccc2[nH]1 [4.002, carbendazim, reference compound] | – | – | – | – | – | – | – | – | – | – | – | – | – | – | pest or weed control at 5 ppm ([1]; Venturia inaequalis, 240 h, read-out: Efficacy in % found, 5 ppm a.i., apples, 10 days after inoculation): 8%; pest or weed control at 10 ppm ([1]; Venturia inaequalis, 240 h): 21%; Efficacy in % found ([2]; 5 ppm a.i.): 0%; Efficacy in % found ([3]; 10 ppm a.i.): 0%; pest or weed control at 1.25 ppm ([4]; Phakopsora pachyrhizi, 168 h, 1.25 ppm a.i., read-out: Efficacy in % found): 0%; pest or weed control at 2.5 ppm ([4]; Phakopsora pachyrhizi, 168 h, 2.5 ppm a.i., read-out: Efficacy in % found): 0% |
| CCCC1CC(C)(C)c2cccc(NC(=O)c3cccnc3C(F)F)c21 (centres unmarked) [(I-5), 2-(difluoromethyl)-N-(1,1-dimethyl-3-propyl-2,3-dihydro-1H-inden-4-yl)nicotinamide] | 8 | 0 | 0 | 4 | 0 | 0 | 0% | 8 | 60 | – | – | – | – | – | pest or weed control at 2 ppm ([1]; Venturia inaequalis, 240 h): 0%; Efficacy in % found ([5]; 5 ppm a.i.): 17% |
| CCC[C@@H]1CC(C)(C)c2cccc(NC(=O)c3cccnc3C(F)F)c21 [(I-6), 2-(difluoromethyl)-N-[(3R)-1,1-dimethyl-3-propyl-2,3-dihydro-1H-inden-4-yl]nicotinamide] | – | 0 | 14 | 8 | 15 | 0 | 8% and 15% | 51 | 75 | 19% and 11% | 0 | 0% | – | – | pest or weed control at 2 ppm ([1]; Venturia inaequalis, 240 h): 15%; Efficacy in % found ([5]; 5 ppm a.i.): 21% |
| mancozeb [5.023, reference compound] | – | – | – | – | – | – | – | – | – | – | – | – | – | – | Efficacy in % found ([1]; 25 ppm a.i.): 31%; Efficacy in % found ([1]; 50 ppm a.i.): 34%; Efficacy in % found ([2]; 25 ppm a.i.): 0%; Efficacy in % found ([2]; 50 ppm a.i.): 0%; Efficacy in % found ([3]; 50 ppm a.i.): 0%; Efficacy in % found ([4]; 6.25 ppm a.i.): 24%; Efficacy in % found ([4]; 12.5 ppm a.i.): 41% |
| propineb [5.029, reference compound] | – | – | – | – | – | – | – | – | – | – | – | – | – | – | Efficacy in % found ([1]; 12.5 ppm a.i.): 11%; Efficacy in % found ([1]; 25 ppm a.i.): 94%; Efficacy in % found ([2]; 25 ppm a.i.): 0%; Efficacy in % found ([3]; 50 ppm a.i.): 0%; Efficacy in % found ([4]; 6.25 ppm a.i.): 0%; Efficacy in % found ([4]; 12.5 ppm a.i.): 0% |
| CC[C@@H]1CC(C)(C)c2cccc(NC(=O)c3cccnc3C(F)F)c21 [(I-4), 2-(difluoromethyl)-N-[(3R)-3-ethyl-1,1-dimethyl-2,3-dihydro-1H-inden-4-yl]nicotinamide] | 15 | – | 10 | 7 | 0 | 8 | 30% and 55% | 35 | 65 | – | 8 | 40% | 85 | – | – |
| O=[N+]([O-])c1cc(C(F)(F)F)c(Cl)c([N+](=O)[O-])c1Nc1ncc(C(F)(F)F)cc1Cl [14.004, fluazinam, reference compound] | – | – | 45 | 28 | – | – | – | – | – | – | – | – | – | – | pest or weed control at 10 ppm ([1]; Venturia inaequalis, 240 h): 0%; Efficacy in % found ([2]; 5 ppm a.i.): 63%; Efficacy in % found ([3]; 10 ppm a.i.): 0%; pest or weed control at 5 ppm ([4]; Phakopsora pachyrhizi, 168 h, 5 ppm a.i., read-out: Efficacy in % found): 0% |
| CC1(C)N=C(c2cnc3ccccc3c2)c2ccccc2C1(F)F [15.090, 3-(4,4-difluoro-3,3-dimethyl-3,4-dihydroisoquinolin-1-yl)quinoline] | 19 | – | – | – | 0 | 0 | – | – | 0 | 28% | – | – | 0 | 0 | – |
| CC(O)(Cn1cncn1)c1ccc(Oc2ccc(Cl)cc2)cc1C(F)(F)F (centres unmarked) [1.084, 2-[4-(4-chlorophenoxy)-2-(trifluoromethyl)phenyl]-1-(1H-1,2,4-triazol-1-yl)propan-2-ol] | 11 | 34 | – | – | – | – | 15% | – | – | – | 8 | 8% and 0% | 8 | 0 | Efficacy in % found ([6]; 0.5 ppm a.i.): 0%; pest or weed control at 1 ppm ([1]; Venturia inaequalis, 240 h): 31% |
| N#Cc1c(Cl)c(Cl)c(Cl)c(C#N)c1Cl [5.004, chlorothalonil, reference compound] | – | – | – | – | – | – | – | – | – | – | – | – | – | – | pest or weed control at 25 ppm ([1]; Venturia inaequalis, 240 h, read-out: Efficacy in % found, 25 ppm a.i., apples, 10 days after inoculation): 36%; Efficacy in % found ([3]; 50 ppm a.i.): 0%; pest or weed control at 6.25 ppm ([4]; Phakopsora pachyrhizi, 168 h, 6.25 ppm a.i., read-out: Efficacy in % found): 18%; pest or weed control at 12.5 ppm ([4]; Phakopsora pachyrhizi, 168 h, 12.5 ppm a.i., read-out: Efficacy in % found): 0% |
| CCC1CC(C)(C)c2cccc(NC(=O)c3cccnc3C(F)F)c21 (centres unmarked) [(I-3), 2-(difluoromethyl)-N-(3-ethyl-1,1-dimethyl-2,3-dihydro-1H-inden-4-yl)nicotinamide] | 4 | 18 | – | 4 | – | – | 40% | 35 | – | 15% | 15 | 23% | 65 | 84 | Efficacy in % found ([6]; 0.5 ppm a.i.): 0%; Efficacy in % found ([6]; 1 ppm a.i.): 0%; pest or weed control at 2 ppm ([1]; Venturia inaequalis, 240 h): 11%; Efficacy in % found ([5]; 5 ppm a.i.): 28%; Efficacy in % found ([2]; 2 ppm a.i.): 23% |
| O[C@@H](c1cccnc1)c1c(-c2ccc(Cl)cc2F)noc1-c1ccc(F)cc1F [1.104, (S)-[3-(4-chloro-2-fluorophenyl)-5-(2,4-difluorophenyl)-1,2-oxazol-4-yl](pyridin-3-yl)methanol] | 0 | 11 | – | – | – | 15 | 0% | – | 0 | 26% | 0 | 0% | – | 0 | Efficacy in % found ([6]; 0.25 ppm a.i.): 0%; Efficacy in % found ([6]; 1 ppm a.i.): 0%; pest or weed control at 1 ppm ([1]; Venturia inaequalis, 240 h): 19% |
